The NIST ThermoML archive (doi:10.1016/j.jct.2006.09.008)

Experiment: molar heat capacity at constant pressure; mn = molality of the nth substance listed, in mol/kg
Conditions: 350 kPa, Liquid

O=[N+]([O-])[O-].O=[N+]([O-])[O-].[Mn+2] [manganese nitrate] + O
molar heat capacity at constant pressure [J/K/mol]
Conditions | m1 = 0.0132 | m1 = 0.0248 | m1 = 0.0503 | m1 = 0.0825 | m1 = 0.0836 | m1 = 0.1542 | m1 = 0.3085 | m1 = 0.5132
278.15 K | 75.63 | 75.56 | 75.42 | 75.25 | 75.25 | 74.9 | 74.27 | 73.62
283.15 K | 75.47 | 75.41 | 75.28 | 75.14 | 75.13 | 74.83 | 74.27 | 73.71
288.15 K | 75.36 | 75.31 | 75.19 | 75.07 | 75.06 | 74.79 | 74.3 | 73.8
293.15 K | 75.29 | 75.24 | 75.14 | 75.02 | 75.02 | 74.78 | 74.34 | 73.88
298.15 K | 75.24 | 75.2 | 75.1 | 75 | 75 | 74.78 | 74.38 | 73.96
303.15 K | 75.21 | 75.17 | 75.08 | 74.99 | 74.99 | 74.78 | 74.42 | 74.04
308.15 K | 75.2 | 75.16 | 75.08 | 74.99 | 74.99 | 74.8 | 74.46 | 74.11
313.15 K | 75.2 | 75.16 | 75.09 | 75.01 | 75 | 74.83 | 74.51 | 74.18
318.15 K | 75.21 | 75.18 | 75.11 | 75.03 | 75.03 | 74.86 | 74.56 | 74.25
323.15 K | 75.24 | 75.2 | 75.14 | 75.06 | 75.06 | 74.89 | 74.61 | 74.32
328.15 K | 75.27 | 75.24 | 75.17 | 75.1 | 75.09 | 74.94 | 74.66 | 74.39
333.15 K | 75.31 | 75.28 | 75.21 | 75.14 | 75.14 | 74.99 | 74.72 | 74.45
338.15 K | 75.36 | 75.33 | 75.26 | 75.19 | 75.19 | 75.04 | 74.78 | 74.52
343.15 K | 75.42 | 75.39 | 75.32 | 75.25 | 75.25 | 75.1 | 74.84 | 74.59
348.15 K | 75.48 | 75.45 | 75.38 | 75.31 | 75.31 | 75.16 | 74.91 | 74.66
353.15 K | 75.55 | 75.52 | 75.46 | 75.38 | 75.38 | 75.23 | 74.98 | 74.73
358.15 K | 75.63 | 75.6 | 75.53 | 75.46 | 75.46 | 75.31 | 75.06 | 74.81
363.15 K | 75.72 | 75.68 | 75.62 | 75.54 | 75.54 | 75.39 | 75.14 | 74.89
368.15 K | 75.81 | 75.78 | 75.71 | 75.63 | 75.63 | 75.48 | 75.22 | 74.97
373.15 K | 75.91 | 75.88 | 75.81 | 75.73 | 75.73 | 75.57 | 75.31 | 75.06
378.15 K | 76.02 | 75.99 | 75.91 | 75.83 | 75.83 | 75.67 | 75.41 | 75.15
383.15 K | 76.14 | 76.1 | 76.03 | 75.94 | 75.94 | 75.78 | 75.51 | 75.25
388.15 K | 76.27 | 76.23 | 76.15 | 76.07 | 76.07 | 75.89 | 75.62 | 75.36
393.15 K | 76.41 | 76.37 | 76.29 | 76.2 | 76.2 | 76.02 | 75.74 | 75.47
